PMC5218480 (PLoS ONE, 2017)

System: MV-4-11 cells
Experiment: Gene expression microarray analysis (Affymetrix PrimeView) and GSEA
Format: cell-based, human
Parameters: RFU PODN (11730768_x_at) / Fold change /veh PODN (11730768_x_at) / RFU LINC00158 (11744669_a_at) / Fold change /veh LINC00158 (11744669_a_at) / RFU DUSP10 (11751237_a_at) / Fold change /veh DUSP10 (11751237_a_at) / RFU ID3 (11757404_x_at) / Fold change /veh ID3 (11757404_x_at) / RFU PLEKHG5 (11737974_s_at) / Fold change /veh PLEKHG5 (11737974_s_at) / RFU LRRC4B (11730491_at) / Fold change /veh LRRC4B (11730491_at) / RFU GIMAP4 (11747438_a_at) / Fold change /veh GIMAP4 (11747438_a_at) / RFU KRT8 (11758183_x_at) / Fold change /veh KRT8 (11758183_x_at) / RFU CNN1 (11734310_a_at) / Fold change /veh CNN1 (11734310_a_at) / RFU VPS37D (11726825_at) / Fold change /veh VPS37D (11726825_at) / RFU C10orf10 (11716522_x_at) / Fold change /veh C10orf10 (11716522_x_at) / RFU KIR2DL2 /// KIR2DL4 /// KIR2DL5A /// KIR2DL5B /// KIR2DS1 /// KIR2DS2 /// KIR2DS3 /// KIR2DS4 /// KIR3DL3 /// KIR3DL3 /// KIR3DS1 (11738374_at) / Fold change /veh KIR2DL2 /// KIR2DL4 /// KIR2DL5A /// KIR2DL5B /// KIR2DS1 /// KIR2DS2 /// KIR2DS3 /// KIR2DS4 /// KIR3DL3 /// KIR3DL3 /// KIR3DS1 (11738374_at) / RFU C1QL1 (11718748_at) / Fold change /veh C1QL1 (11718748_at) / RFU TMPRSS4 (11747572_a_at) / Fold change /veh TMPRSS4 (11747572_a_at) / RFU HAMP (11756126_x_at) / Fold change /veh HAMP (11756126_x_at) / RFU RNFT2 (11725882_a_at) / Fold change /veh RNFT2 (11725882_a_at) / RFU NR4A2 (11747474_a_at) / Fold change /veh NR4A2 (11747474_a_at) / RFU ABCC12 (11746883_a_at) / Fold change /veh ABCC12 (11746883_a_at) / RFU TMEM136 (11760407_x_at) / Fold change /veh TMEM136 (11760407_x_at) / RFU CLDN22 /// WWC2 (11732394_at) / Fold change /veh CLDN22 /// WWC2 (11732394_at) / RFU HLA-DPB1 (11760878_x_at) / Fold change /veh HLA-DPB1 (11760878_x_at) / RFU SPINT1 (11716480_a_at) / Fold change /veh SPINT1 (11716480_a_at) / RFU GAP43 (11754022_s_at) / Fold change /veh GAP43 (11754022_s_at) / RFU A4GNT (11735810_at) / Fold change /veh A4GNT (11735810_at) / RFU PRB3 (11715151_x_at) / Fold change /veh PRB3 (11715151_x_at) / RFU TUBB4B (11761932_at) / Fold change /veh TUBB4B (11761932_at) / RFU CAPN14 (11732068_a_at) / Fold change /veh CAPN14 (11732068_a_at) / RFU TMCC2 (11721928_a_at) / Fold change /veh TMCC2 (11721928_a_at) / RFU IRGQ (11745062_a_at) / Fold change /veh IRGQ (11745062_a_at) / RFU FAM174B (11720279_a_at) / Fold change /veh FAM174B (11720279_a_at) / RFU TMPRSS4 (11748680_a_at) / Fold change /veh TMPRSS4 (11748680_a_at) / RFU FAM212B (11763350_a_at) / Fold change /veh FAM212B (11763350_a_at) / RFU PLEKHG5 (11743358_a_at) / Fold change /veh PLEKHG5 (11743358_a_at) / RFU ZSCAN30 (11745921_a_at) / Fold change /veh ZSCAN30 (11745921_a_at) / RFU CMKLR1 (11741424_a_at) / Fold change /veh CMKLR1 (11741424_a_at) / RFU LOC101060620 /// MAPK8IP1 (11723275_at) / Fold change /veh LOC101060620 /// MAPK8IP1 (11723275_at) / RFU SPTSSB (11747773_x_at) / Fold change /veh SPTSSB (11747773_x_at) / RFU PRSS12 (11739890_at) / Fold change /veh PRSS12 (11739890_at) / RFU BIN1 (11741810_x_at) / Fold change /veh BIN1 (11741810_x_at) / RFU WNT11 (11732464_a_at) / Fold change /veh WNT11 (11732464_a_at) / RFU C10orf10 (11716521_a_at) / Fold change /veh C10orf10 (11716521_a_at) / RFU C5orf56 (11738089_at) / Fold change /veh C5orf56 (11738089_at) / RFU CYB561 (11721691_x_at) / Fold change /veh CYB561 (11721691_x_at) / RFU ANKRD19P (11752326_a_at) / Fold change /veh ANKRD19P (11752326_a_at) / RFU OR2T12 /// OR2T33 /// OR2T8 (11738714_s_at) / Fold change /veh OR2T12 /// OR2T33 /// OR2T8 (11738714_s_at) / RFU VCAN (11748164_a_at) / Fold change /veh VCAN (11748164_a_at) / RFU JSRP1 (11732532_at) / Fold change /veh JSRP1 (11732532_at) / RFU KRTAP10-11 (11738290_x_at) / Fold change /veh KRTAP10-11 (11738290_x_at) / RFU MYO3A (11730013_a_at) / Fold change /veh MYO3A (11730013_a_at) / RFU EBF3 (11725865_a_at) / Fold change /veh EBF3 (11725865_a_at) / RFU CAMK2N1 (11719241_x_at) / Fold change /veh CAMK2N1 (11719241_x_at) / RFU C5orf56 (11738088_a_at) / Fold change /veh C5orf56 (11738088_a_at) / RFU OLFML3 (11715873_a_at) / Fold change /veh OLFML3 (11715873_a_at) / RFU LOC100653217 /// NTM (11731650_a_at) / Fold change /veh LOC100653217 /// NTM (11731650_a_at) / RFU MAPK11 (11762145_a_at) / Fold change /veh MAPK11 (11762145_a_at) / RFU FIZ1 (11724087_x_at) / Fold change /veh FIZ1 (11724087_x_at) / RFU OASL (11726364_x_at) / Fold change /veh OASL (11726364_x_at) / RFU SOX15 (11748057_x_at) / Fold change /veh SOX15 (11748057_x_at) / RFU CD79A (11719716_a_at) / Fold change /veh CD79A (11719716_a_at) / RFU HIST1H1D (11736915_at) / Fold change /veh HIST1H1D (11736915_at) / RFU CASKIN2 (11723855_a_at) / Fold change /veh CASKIN2 (11723855_a_at) / RFU LOC730098 (11760151_x_at) / Fold change /veh LOC730098 (11760151_x_at) / RFU OR4N2 (11742367_at) / Fold change /veh OR4N2 (11742367_at) / RFU PRRT2 (11749266_a_at) / Fold change /veh PRRT2 (11749266_a_at) / RFU SNX32 (11753110_a_at) / Fold change /veh SNX32 (11753110_a_at) / RFU CDHR5 (11726645_a_at) / Fold change /veh CDHR5 (11726645_a_at) / RFU RCAN1 (11760418_a_at) / Fold change /veh RCAN1 (11760418_a_at) / RFU FAM167A (11723789_a_at) / Fold change /veh FAM167A (11723789_a_at) / RFU FAM26E (11764081_at) / Fold change /veh FAM26E (11764081_at) / RFU ISYNA1 (11749810_s_at) / Fold change /veh ISYNA1 (11749810_s_at) / RFU ACY1 (11761880_at) / Fold change /veh ACY1 (11761880_at) / RFU 11764098_at / Fold change /veh 11764098_at / RFU SAMD14 (11745864_x_at) / Fold change /veh SAMD14 (11745864_x_at) / RFU NPB (11741838_a_at) / Fold change /veh NPB (11741838_a_at) / RFU TMPRSS6 (11731388_a_at) / Fold change /veh TMPRSS6 (11731388_a_at) / RFU KRTAP10-2 (11738614_at) / Fold change /veh KRTAP10-2 (11738614_at) / RFU ARHGAP8 /// PRR5-ARHGAP8 (11727945_x_at) / Fold change /veh ARHGAP8 /// PRR5-ARHGAP8 (11727945_x_at) / RFU KRTAP5-7 /// NADSYN1 (11734609_at) / Fold change /veh KRTAP5-7 /// NADSYN1 (11734609_at) / RFU RASL12 (11751679_a_at) / Fold change /veh RASL12 (11751679_a_at) / RFU CDKN2B (11736163_a_at) / Fold change /veh CDKN2B (11736163_a_at) / RFU PRF1 (11729649_at) / Fold change /veh PRF1 (11729649_at) / RFU, ZNF638 /// ZNF638-IT1 / Fold change vs veh, ZNF638 /// ZNF638-IT1 / RFU, PANK3 / Fold change vs veh, PANK3 / RFU, SH3YL1 / Fold change vs veh, SH3YL1 / RFU, ZEB2 / Fold change vs veh, ZEB2 / RFU, NRIP1 / Fold change vs veh, NRIP1 / RFU, PTTG1IP / Fold change vs veh, PTTG1IP / RFU, CAPN2 / Fold change vs veh, CAPN2 / RFU, MED14 / Fold change vs veh, MED14 / RFU, SNORA58 / Fold change vs veh, SNORA58 / RFU, C1orf63 / Fold change vs veh, C1orf63 / RFU, LRRFIP1 / Fold change vs veh, LRRFIP1 / RFU, NDUFAF7 / Fold change vs veh, NDUFAF7 / RFU, SLC12A2 / Fold change vs veh, SLC12A2 / RFU, IBTK / Fold change vs veh, IBTK / RFU, ESF1 / Fold change vs veh, ESF1 / Fold change vs veh, TMEM50B / RFU, TAOK1 / Fold change vs veh, TAOK1 / RFU, ACBD3 / Fold change vs veh, ACBD3 / RFU, TMA16 / Fold change vs veh, TMA16 / RFU, RWDD3 / Fold change vs veh, RWDD3 / RFU, BCAT1 / Fold change vs veh, BCAT1 / RFU, EDEM3 / Fold change vs veh, EDEM3 / RFU, TMEM33 / Fold change vs veh, TMEM33 / RFU, WDR75 / Fold change vs veh, WDR75 / RFU, AHCTF1 / Fold change vs veh, AHCTF1 / RFU, TFRC / Fold change vs veh, TFRC / RFU, ZDHHC17 / Fold change vs veh, ZDHHC17 / RFU, NOM1 / Fold change vs veh, NOM1 / RFU, ARL8B / Fold change vs veh, ARL8B / RFU, ZBTB11 / Fold change vs veh, ZBTB11 / RFU, TAMM41 / Fold change vs veh, TAMM41 / RFU, KIAA1704 /// LOC100996395 / Fold change vs veh, KIAA1704 /// LOC100996395 / RFU, ING1 / Fold change vs veh, ING1 / RFU, TRMT61B / Fold change vs veh, TRMT61B / RFU, FUBP3 / Fold change vs veh, FUBP3 / RFU, TP53 / Fold change vs veh, TP53 / RFU, TNKS2 / Fold change vs veh, TNKS2 / RFU, ZFP14 / Fold change vs veh, ZFP14 / RFU, ACTR2 / Fold change vs veh, ACTR2 / RFU, PPP3R1 / Fold change vs veh, PPP3R1 / RFU, PIK3R1 / Fold change vs veh, PIK3R1 / RFU, HNRNPA1 / Fold change vs veh, HNRNPA1 / RFU, RNF170 / Fold change vs veh, RNF170 / RFU, ZNF28 / Fold change vs veh, ZNF28 / RFU, RNGTT / Fold change vs veh, RNGTT / RFU, OGT / Fold change vs veh, OGT / RFU, BRD1 / Fold change vs veh, BRD1 / RFU, MARS / Fold change vs veh, MARS / RFU, ZNF655 / Fold change vs veh, ZNF655 / RFU, FAHD1 / Fold change vs veh, FAHD1 / RFU, BDP1 / Fold change vs veh, BDP1 / RFU, LRRCC1 / Fold change vs veh, LRRCC1 / RFU, ARID1A / Fold change vs veh, ARID1A / RFU, ZNF146 / Fold change vs veh, ZNF146 / RFU, ZNF330 / Fold change vs veh, ZNF330 / RFU, GPN3 / Fold change vs veh, GPN3 / RFU, C9orf123 / Fold change vs veh, C9orf123 / RFU, N4BP2L2 / Fold change vs veh, N4BP2L2 / RFU, ARFIP1 / Fold change vs veh, ARFIP1 / RFU, FAM179B / Fold change vs veh, FAM179B / RFU, BCL10 / Fold change vs veh, BCL10 / RFU, UHRF1BP1L / Fold change vs veh, UHRF1BP1L / RFU, BET1 / Fold change vs veh, BET1 / RFU, CNOT2 / Fold change vs veh, CNOT2 / RFU, ZNF268 / Fold change vs veh, ZNF268 / Fold change vs veh, ZNF507 / RFU, DGCR2 / Fold change vs veh, DGCR2 / RFU, WDSUB1 / Fold change vs veh, WDSUB1 / Fold change vs veh, HSP90B1 /// MIR3652 / RFU, ADSS / Fold change vs veh, ADSS / RFU, GK / Fold change vs veh, GK / RFU, ZNF148 / Fold change vs veh, ZNF148 / RFU, TAF9 / Fold change vs veh, TAF9 / RFU, SLC1A5 / Fold change vs veh, SLC1A5 / RFU, SLMO2 / Fold change vs veh, SLMO2 / RFU, ABCC4 / Fold change vs veh, ABCC4 / RFU, LOC101060439 /// RAP1B / Fold change vs veh, LOC101060439 /// RAP1B / RFU, RFX7 / Fold change vs veh, RFX7 / RFU, GTPBP10 / Fold change vs veh, GTPBP10 / RFU, CNEP1R1 / Fold change vs veh, CNEP1R1 / RFU, BIVM-ERCC5 /// ERCC5 / Fold change vs veh, BIVM-ERCC5 /// ERCC5 / RFU, ILF3 / Fold change vs veh, ILF3 / RFU 11762660_at / Fold change /veh 11762660_at / RFU VCAN (11757783_s_at) / Fold change /veh VCAN (11757783_s_at) / RFU DDX43 (11728927_at) / Fold change /veh DDX43 (11728927_at) / RFU KRT8 (11758188_x_at) / Fold change /veh KRT8 (11758188_x_at) / RFU NKD1 (11759106_at) / Fold change /veh NKD1 (11759106_at) / RFU SRD5A1 (11742802_a_at) / Fold change /veh SRD5A1 (11742802_a_at) / RFU TPSAB1 /// TPSB2 (11721975_s_at) / Fold change /veh TPSAB1 /// TPSB2 (11721975_s_at) / RFU GSTM3 (11746129_a_at) / Fold change /veh GSTM3 (11746129_a_at) / RFU IL23R (11737362_x_at) / Fold change /veh IL23R (11737362_x_at) / RFU TMEM51 (11727254_a_at) / Fold change /veh TMEM51 (11727254_a_at) / RFU PIWIL2 (11732686_x_at) / Fold change /veh PIWIL2 (11732686_x_at) / RFU ORM1 (11744905_x_at) / Fold change /veh ORM1 (11744905_x_at) / RFU CCDC152 (11743942_at) / Fold change /veh CCDC152 (11743942_at) / RFU ECM1 (11717891_a_at) / Fold change /veh ECM1 (11717891_a_at) / RFU IL23R (11748794_a_at) / Fold change /veh IL23R (11748794_a_at) / RFU TNFAIP8L3 (11732012_x_at) / Fold change /veh TNFAIP8L3 (11732012_x_at) / RFU MBOAT4 (11741988_at) / Fold change /veh MBOAT4 (11741988_at) / RFU 11764193_at / Fold change /veh 11764193_at / RFU TMEM53 (11763286_at) / Fold change /veh TMEM53 (11763286_at) / RFU MAGEB2 (11727129_at) / Fold change /veh MAGEB2 (11727129_at) / RFU TMEM200A (11744735_a_at) / Fold change /veh TMEM200A (11744735_a_at) / RFU CCDC152 (11751479_a_at) / Fold change /veh CCDC152 (11751479_a_at) / RFU FAM211A (11726209_a_at) / Fold change /veh FAM211A (11726209_a_at) / RFU RGS16 (11746705_a_at) / Fold change /veh RGS16 (11746705_a_at) / RFU VCAN (11755009_s_at) / Fold change /veh VCAN (11755009_s_at) / RFU RHOB (11743442_s_at) / Fold change /veh RHOB (11743442_s_at) / RFU RGS16 (11720943_a_at) / Fold change /veh RGS16 (11720943_a_at) / RFU RGS16 (11720944_at) / Fold change /veh RGS16 (11720944_at) / RFU, VPS4B / Fold change vs veh, VPS4B / RFU, CREB1 / Fold change vs veh, CREB1 / RFU, DNAJC13 / Fold change vs veh, DNAJC13 / RFU, GNAQ / Fold change vs veh, GNAQ / RFU, CDK5R1 / Fold change vs veh, CDK5R1 / RFU, ZRANB3 / Fold change vs veh, ZRANB3 / RFU, CUL4A / Fold change vs veh, CUL4A / RFU, CCNY / Fold change vs veh, CCNY / RFU, UFL1 / Fold change vs veh, UFL1 / RFU, COG3 / Fold change vs veh, COG3 / RFU, DIAPH2 / Fold change vs veh, DIAPH2 / RFU, SKA2 / Fold change vs veh, SKA2 / RFU, AFF3 / Fold change vs veh, AFF3 / RFU, LMF1 / Fold change vs veh, LMF1 / RFU, IPO11 / Fold change vs veh, IPO11 / RFU, DFFB / Fold change vs veh, DFFB / RFU, FOXP1 / Fold change vs veh, FOXP1 / RFU, CARD8 / Fold change vs veh, CARD8 / RFU, STRN3 / Fold change vs veh, STRN3 / RFU, ADK / Fold change vs veh, ADK / RFU, RASSF2 / Fold change vs veh, RASSF2 / RFU, WIPF1 / Fold change vs veh, WIPF1 / RFU, LARP1B / Fold change vs veh, LARP1B / RFU, RASA1 / Fold change vs veh, RASA1 / RFU, RB1 / Fold change vs veh, RB1 / RFU, PPFIA1 / Fold change vs veh, PPFIA1 / RFU, MAT2A / Fold change vs veh, MAT2A / RFU, CCT5 / Fold change vs veh, CCT5 / RFU, WDR92 / Fold change vs veh, WDR92 / RFU, CUX1 / Fold change vs veh, CUX1 / RFU, TTC7A / Fold change vs veh, TTC7A / RFU, TMEM135 / Fold change vs veh, TMEM135 / RFU, DEPTOR / Fold change vs veh, DEPTOR / RFU, CPM / Fold change vs veh, CPM / RFU, DNAJB6 / Fold change vs veh, DNAJB6 / RFU, CACNA2D3 / Fold change vs veh, CACNA2D3 / RFU, DTX4 / Fold change vs veh, DTX4 / RFU, TFCP2 / Fold change vs veh, TFCP2 / RFU, GMCL1 /// GMCL1P1 / Fold change vs veh, GMCL1 /// GMCL1P1 / RFU, AEBP2 / Fold change vs veh, AEBP2 / RFU, SNHG1 /// SNORD22 /// SNORD25 /// SNORD26 /// SNORD27 /// SNORD28 /// SNORD29 /// SNORD31 / Fold change vs veh, SNHG1 /// SNORD22 /// SNORD25 /// SNORD26 /// SNORD27 /// SNORD28 /// SNORD29 /// SNORD31 / Fold change (Aza/veh), C12orf56 (ProbeSet 11735607_a_at) / Fold change (ACY-1035/veh), C12orf56 (ProbeSet 11735607_a_at) / Fold change (Aza/veh), FGFR1OP (ProbeSet 11751329_s_at) / Fold change (ACY-1035/veh), FGFR1OP (ProbeSet 11751329_s_at) / Fold change (Aza/veh), VPS36 (ProbeSet 11739960_a_at) / Fold change (ACY-1035/veh), VPS36 (ProbeSet 11739960_a_at) / RFU SYPL1 (11715823_x_at) / Fold change /veh SYPL1 (11715823_x_at) / RFU IGFBP7 (11715501_s_at) / Fold change /veh IGFBP7 (11715501_s_at) / RFU REEP3 (11722064_at) / Fold change /veh REEP3 (11722064_at) / RFU IGLL1 (11728026_x_at) / Fold change /veh IGLL1 (11728026_x_at): dose or concentration left out as unconfirmed
Conditions: MV-4-11 cells, 48 hours

## Nc1ncn([C@@H]2O[C@H](CO)[C@@H](O)[C@H]2O)c(=O)n1 [azacitidine]
  Fold change /veh RGS16 (11720943_a_at): 1.45
